US20100204210A1, “METHOD FOR TREATING PULMONARY DISEASES USING RHO KINASE INHIBITOR COMPOUNDS” (priority 2008, published 2010)
Like-named read-outs stand apart in the source and are kept apart here.

Columns and labels:
rat tracheal rings [1] = test: Relaxation of carbachol-precontracted rat tracheal rings pretreated with vehicle or pro-inflammatory cytokines IL-1β and TNF-α; details: 300 nM carbachol, read-out: IC50 for relaxant response
Procedure: Male Sprague-Dawley rats weighing 301-325 gm were sacrificed by asphyxiation in a CO2 chamber. Trachea were excised, cleaned of connective tissue and cut into cylindrical segments of 2-3 mm length. Tissues were treated for 18 hours at 37° C. in F12 media with penicillin-streptomycin and 0.1% BSA alone or with 10 ng/ml IL-1β and 100 ng/ml TNF-α. IL-1β and TNF-α are pro-inflammatory cytokines. Tissues were then washed free of cytokines with Krebs buffer. Contractile tensions were measured using an isometric force transducer (Grass Instruments) as described for Example 1 and signals were analyzed using specialized software (Chart v5.5, ADInstruments). Tissues were treated with 300 nM carbachol for 10 to 15 minutes to induce a contractile response. Beta adrenergic receptor agonist compounds, isoproterenol or albuterol, were added cumulatively to the bath every 2 to 3 minutes and reductions in tension were recorded. Alternatively, Rho kinase inhibitor compound was added cumulatively to the bath every 30 minutes and reductions in tension were recorded. Basal tension was subtracted from all values and data were reported as a percentage of the maximal carbachol-induced contraction. Data were fit to the Hill equation using GraphPad Prism v5 software.

[2] = Pulmonary function test (FEV1 after methacholine provocation) in human patients treated with formoterol; format: in vivo; details: formoterol group compared to the placebo group, after 2 weeks
Description: Patients with asthma or COPD are randomized to albuterol or Rho kinase inhibitor compound test groups. After 2-weeks of run-in period, subjects are given a methacholine provocation test (MPT) to induce bronchoconstriction followed by treatment with increasing doses of albuterol or with increasing doses of Rho kinase inhibitor compound to induce bronchorelaxation to establish the subject's baseline response to albuterol or Rho kinase inhibitor compound. Subjects from both test groups are then randomized to inhaled formoterol twice daily or placebo for 2 weeks. At the end of the trial period, the albuterol test group subjects are again administered a methacholine provocation test to induce bronchoconstriction followed by treatment with increasing doses of albuterol. Similarly, the Rho kinase inhibitor compound test group subjects are again administered a methacholine provocation test to induce bronchoconstriction followed by treatment with increasing doses of Rho kinase inhibitor compound to induce bronchorelaxation. The change in FEV1 after albuterol inhalation or administration of Rho kinase inhibitor compound is measured.

rat tracheal rings [3] = test: Relaxation of carbachol-precontracted rat tracheal rings with reduced responsiveness to beta adrenergic receptor agonist; details: for response of carbachol-precontracted trachea to beta adrenergic receptor agonist: 300 nM carbachol, 1 μM isoproterenol, 1 μM formoterol or 30 μM albuterol, FIG. 1A-C; for relaxation by second addition of beta agonist after the response to 3 μM formoterol has faded: second dose 3 μM formoterol or 100 μM albuterol
Procedure: Trachea were excised from male Sprague-Dawley rats, cleaned of connective tissue and cut into cylindrical segments of 2-3 mm length. Two stainless steel wires were guided through the lumen of the tracheal ring. One wire was fixed in the tissue bath and the other was connected to a force transducer via surgical silk. Preparations were mounted in 5 ml water-jacketed organ baths (Radnoti Glass Technology) filled with Krebs buffer (95 mM NaCl, 5 mM KCl, 2.6 mM CaCl2, 1.2 mM MgSO4, 24.9 mM NaHCO3, 1.2 mM KH2PO4, 10 mM glucose) maintained at 37° C. and gassed with 95% O2 and 5% CO2. Indomethacin (1 μM), a cyclooxygenase inhibitor, was added to the Krebs buffer and was present throughout the experiments. Contractile tensions were measured using an isometric force transducer (Grass Instruments) and signals were analyzed using specialized software (Chart v5.5, ADInstruments). The preparations were allowed to equilibrate at a resting tension of 0.3 to 0.5 gm prior to two challenges with 60 mM KCl to assess tissue viability. After washing, tissues were treated with 300 nM carbachol for 10 to 15 minutes to induce a contractile response. Tissues were then treated with isoproterenol, formoterol, or albuterol to induce a relaxant response. […] After 10 minutes of formoterol treatment, these tissues were treated with a second dose of formoterol or with albuterol. After an additional 10 minutes, tissues were treated with a Rho kinase inhibitor. Basal tension was subtracted from all values and data were reported as a percentage of the maximal carbachol-induced contraction. Four parameters were analyzed for quantitation of efficacies: i) the maximal relaxation induced by initial formoterol treatment, ii) the fade of the response to the initial formoterol treatment, iii) the maximal relaxation induced by the second addition of a beta adrenergic receptor agonist, and iv) the maximal relaxation induced by Rho kinase inhibitor.

[4] = cytokine-pretreated tissue (10 ng/ml IL-1β and 100 ng/ml TNF-α, 18 hours)

| SMILES | IC50 (rat tracheal rings [1]; [4]) [nM] | IC50 (rat tracheal rings [1]; vehicle-pretreated tissue) [nM] | bronchodilator response as measured by FEV1 [2] | response of carbachol-precontracted trachea to beta adrenergic receptor agonist (rat tracheal rings [3]) | relaxation by second addition of beta agonist after the response to 3 μM formoterol has faded (rat tracheal rings [3]) | maximal relaxation induced by initial formoterol treatment (rat tracheal rings [3]; 3 μM formoterol, FIGS. 4-7) |
| --- | --- | --- | --- | --- | --- | --- |
| CC(C)(C)NCC(O)c1ccc(O)c(CO)c1 (centres unmarked) [albuterol] | 411 | 239 | decrease in the bronchodilator response | initial rapid and partial relaxation of the tissue followed by a slower fade of the response to a more contractile state | ineffective in relaxing the tracheal preparation |  |
| COc1ccc(CC(C)NCC(O)c2ccc(O)c(NC=O)c2)cc1 (centres unmarked) [formoterol] |  |  |  | initial rapid and partial relaxation of the tissue followed by a slower fade of the response to a more contractile state | ineffective in relaxing the tracheal preparation | approximately 30 % of the initial carbachol response |
| CC(C)NCC(O)c1ccc(O)c(O)c1 (centres unmarked) [isoproterenol] | 71 | 33 |  | initial rapid and partial relaxation of the tissue followed by a slower fade of the response to a more contractile state |  |  |
